Active and inactive are the calls of the source. The calls are words filed in the database; no cut-off is given here.
How the values were obtained:
Schistosoma japonicum [1] = test: Anti-schistosomal activity against juvenile Schistosoma japonicum infected in ICR mouse assessed as number of worms at 25 mg/kg, ip administered for 7 days; type: functional; details: time 7 day
Schistosoma japonicum [2] = test: Anti-schistosomal activity against adult Schistosoma japonicum measured at 72 hrs; type: functional, organism-based
Schistosoma japonicum [3] = test: Anti-schistosomal activity against adult Schistosoma japonicum infected in ICR mouse assessed as number of worms at 25 mg/kg, ip administered for 7 days; type: functional; details: time 7 day
Schistosoma japonicum [4] = test: Anti-schistosomal activity against adult Schistosoma japonicum assessed as worm mortality at 100 uM measured at 8 hrs relative to control; type: functional
Schistosoma japonicum [5] = test: Anti-schistosomal activity against adult Schistosoma japonicum assessed as worm mortality at 100 uM measured at 12 hrs relative to control; type: functional
Schistosoma japonicum [6] = test: Anti-schistosomal activity against adult Schistosoma japonicum assessed as worm mortality at 100 uM measured at 4 hrs relative to control; type: functional
Schistosoma japonicum [7] = test: Anti-schistosomal activity against adult Schistosoma japonicum assessed as worm mortality at 100 uM measured at 48 hrs relative to control; type: functional
[8] = Toxicity in ICR mouse infected with Schistosoma japonicum assessed as serum BUN level at 25 mg/kg, ip administered for 7 days; type: organism-based; details: in vivo, 168 h, time 7 day
Schistosoma japonicum [9] = test: Anti-schistosomal activity against adult Schistosoma japonicum assessed as worm mortality at 100 uM measured at 72 hrs relative to control; type: functional
Schistosoma japonicum [10] = test: Anti-schistosomal activity against adult Schistosoma japonicum assessed as worm mortality at 100 uM measured at 24 hrs relative to control; type: functional
Schistosoma japonicum [11] = test: Anti-schistosomal activity against juvenile Schistosoma japonicum infected in ICR mouse assessed as reduction in worm burden at 25 mg/kg, ip administered for 7 days; type: functional; set-up: scale not given: the % may be the effect or the level left; details: time 7 day
Schistosoma japonicum [12] = test: Anti-schistosomal activity against adult Schistosoma japonicum infected in ICR mouse assessed as reduction in worm burden at 25 mg/kg, ip administered for 7 days; type: functional; set-up: scale not given: the % may be the effect or the level left; details: time 7 day
Schistosoma japonicum [13] = test: Anti-schistosomal activity against male adult Schistosoma japonicum assessed as loss of tegumental architecture at 25 uM measured after 72 hrs by SEM analysis; type: functional, organism-based
Schistosoma japonicum [14] = test: Anti-schistosomal activity against male adult Schistosoma japonicum assessed as appearance of intact tegument surface at 25 uM measured for 72 hrs by SEM analysis; type: functional, organism-based
Schistosoma japonicum [15] = test: Anti-schistosomal activity against female adult Schistosoma japonicum assessed as loss of tegumental architecture at 25 uM measured after 72 hrs by SEM analysis; type: functional, organism-based
Schistosoma japonicum [16] = test: Anti-schistosomal activity against male adult Schistosoma japonicum assessed as appearance of sensory papillae at 25 uM measured for 72 hrs by SEM analysis; type: functional, organism-based
[17] = Acute toxicity in ICR mouse assessed as ALT level at 1144 mg/kg, po administered for 7 days; type: organism-based; details: in vivo, 168 h, time 7 day
[18] = Acute toxicity in ICR mouse assessed as TBIL level at 1144 mg/kg, po administered for 7 days; type: organism-based; details: in vivo, 168 h, time 7 day
Schistosoma japonicum [19] = test: Anti-schistosomal activity against juvenile Schistosoma japonicum infected in ICR mouse assessed as somatic degeneration at 25 mg/kg, ip administered for 7 days; type: functional, organism-based; details: time 7.0 day
Schistosoma japonicum [20] = test: Anti-schistosomal activity against male adult Schistosoma japonicum assessed as appearance of degradation of subtegumental matrix at 25 uM measured for 72 hrs by SEM analysis; type: functional, organism-based
[21] = Acute toxicity in ICR mouse assessed as BUN level at 1144 mg/kg, po administered for 7 days; type: organism-based; details: in vivo, 168 h, time 7 day
Schistosoma japonicum [22] = test: Anti-schistosomal activity against male adult Schistosoma japonicum assessed as complete loss of sucker-associated muscular architecture at 25 uM measured for 72 hrs by SEM analysis; type: functional, organism-based
Schistosoma japonicum [23] = test: Anti-schistosomal activity against male adult Schistosoma japonicum assessed as surface destabilization at 25 uM measured for 72 hrs by SEM analysis; type: functional, organism-based
Schistosoma japonicum [24] = test: Anti-schistosomal activity against male adult Schistosoma japonicum assessed as appearance of parallel wrinkles at 25 uM measured for 72 hrs by SEM analysis; type: functional, organism-based
[25] = Acute toxicity in ICR mouse assessed as AST level at 1144 mg/kg, po administered for 7 days; type: organism-based; details: in vivo, 168 h, time 7 day
Schistosoma japonicum [26] = test: Anti-schistosomal activity against adult Schistosoma japonicum assessed as darkened body pigmentation at 50 uM incubated for 1 to 72 hrs by optical microscopic analysis; type: functional, organism-based; details: time 1-72 hrs
Schistosoma japonicum [27] = test: Anti-schistosomal activity against adult Schistosoma japonicum assessed as reduction in oviposition at 50 uM incubated for 72 hrs by optical microscopic analysis; type: functional, organism-based
Schistosoma japonicum [28] = test: Anti-schistosomal activity against adult Schistosoma japonicum assessed as muscle contractions at 50 uM incubated for 1 to 72 hrs by optical microscopic analysis; type: functional, organism-based; details: time 1-72 hrs
Schistosoma japonicum [29] = test: Anti-schistosomal activity against male adult Schistosoma japonicum assessed as disruption of tegument spines on the oral suckers at 25 uM measured for 72 hrs by SEM analysis; type: functional, organism-based
[30] = Acute toxicity in ICR mouse assessed as liver damage at 1144 mg/kg, po administered for 7 days by H and E staining based analysis; type: organism-based; details: in vivo, 168 h, time 7 day
Schistosoma japonicum [31] = test: Anti-schistosomal activity against adult Schistosoma japonicum assessed as mortality by measuring body twisting at 50 uM incubated for 1 to 72 hrs by optical microscopic analysis; type: functional, organism-based; details: time 1-72 hrs
Schistosoma japonicum [32] = test: Anti-schistosomal activity against juvenile Schistosoma japonicum infected in ICR mouse assessed as accumulation of inflammatory cells at 25 mg/kg, ip administered for 7 days; type: functional, organism-based; details: time 7.0 day
Schistosoma japonicum [33] = test: Anti-schistosomal activity against juvenile Schistosoma japonicum infected in ICR mouse assessed as cellular vacuolization at 25 mg/kg, ip administered for 7 days; type: functional, organism-based; details: time 7.0 day
Schistosoma japonicum [34] = test: Anti-schistosomal activity against juvenile Schistosoma japonicum infected in ICR mouse assessed as number of eggs in hepatocyte at 25 mg/kg, ip administered for 7 days; type: functional, organism-based; details: time 7.0 day
Schistosoma japonicum [35] = test: Anti-schistosomal activity against adult Schistosoma japonicum assessed as disintegration of tegument at 25 uM measured for 72 hrs by SEM analysis; type: functional, organism-based
Schistosoma japonicum [36] = test: Anti-schistosomal activity against adult Schistosoma japonicum assessed as collapse of sucker musculature at 25 uM measured for 72 hrs by SEM analysis; type: functional, organism-based
[37] = Acute toxicity in po dosed ICR mouse assessed as lethal dose; type: organism-based; details: in vivo

CCOC(=O)/C=C1\S/C(=N\c2ccccc2Cl)N(CCCN2CCN(C)CC2)C1=O
Activity (Schistosoma japonicum [1]): 30% | IC50 (Schistosoma japonicum [2]): 30.4 µM | Activity (Schistosoma japonicum [3]): 37% | mortality at 100 µM (Schistosoma japonicum [4]): 40% | mortality at 100 µM (Schistosoma japonicum [5]): 100% | mortality at 100 µM (Schistosoma japonicum [6]): 10% | mortality at 100 µM (Schistosoma japonicum [7]): 100% | Activity [8]: 7.9 mM | mortality at 100 µM (Schistosoma japonicum [9]): 100% | mortality at 100 µM (Schistosoma japonicum [10]): 100% | Activity (Schistosoma japonicum [11]): 30% | Activity (Schistosoma japonicum [12]): 26%

O=C(C1CCCCC1)N1CC(=O)N2CCc3ccccc3C2C1 (stereo not given) [PRAZIQUANTEL]
Activity (Schistosoma japonicum [13]): Active | Activity (Schistosoma japonicum [1]): 22% | IC50 (Schistosoma japonicum [2]): 43.8 µM | Activity (Schistosoma japonicum [3]): 7% | Activity (Schistosoma japonicum [14]): Active | mortality at 100 µM (Schistosoma japonicum [4]): 100% | Activity (Schistosoma japonicum [15]): Active | Activity (Schistosoma japonicum [16]): Active | Activity [17]: 136 U/L | mortality at 100 µM (Schistosoma japonicum [5]): 100% | mortality at 100 µM (Schistosoma japonicum [6]): 100% | Activity [18]: 3.76 µM | Activity (Schistosoma japonicum [19]): Active | mortality at 100 µM (Schistosoma japonicum [7]): 100% | Activity [8]: 22.1 mM | Activity (Schistosoma japonicum [20]): Active | Activity [21]: 7.93 mM | mortality at 100 µM (Schistosoma japonicum [9]): 100% | Activity (Schistosoma japonicum [22]): Active | mortality at 100 µM (Schistosoma japonicum [10]): 100% | Activity (Schistosoma japonicum [23]): Active | Activity (Schistosoma japonicum [11]): 49% | Activity (Schistosoma japonicum [24]): Active | Activity (Schistosoma japonicum [12]): 86% | Activity [25]: 57 U/L

CCOC(=O)/C=C1\S/C(=N\c2ccc(C(F)(F)F)cc2)N(CCCN2CCN(C)CC2)C1=O
Activity (Schistosoma japonicum [26]): Active | Activity (Schistosoma japonicum [27]): Active | Activity (Schistosoma japonicum [28]): Active | Activity (Schistosoma japonicum [13]): Active | Activity (Schistosoma japonicum [1]): 32% | IC50 (Schistosoma japonicum [2]): 25.3 µM | Activity (Schistosoma japonicum [29]): Active | Activity (Schistosoma japonicum [3]): 24% | Activity (Schistosoma japonicum [14]): Active | mortality at 100 µM (Schistosoma japonicum [4]): 50% | Activity [30]: Non-toxic | Activity (Schistosoma japonicum [15]): Active | Activity (Schistosoma japonicum [16]): Active | Activity [17]: 142 U/L | mortality at 100 µM (Schistosoma japonicum [5]): 100% | Activity (Schistosoma japonicum [31]): Active | mortality at 100 µM (Schistosoma japonicum [6]): 20% | Activity [18]: 3.24 µM | mortality at 100 µM (Schistosoma japonicum [7]): 100% | Activity [8]: 7.22 mM | Activity (Schistosoma japonicum [20]): Active | Activity [21]: 9.6 mM | mortality at 100 µM (Schistosoma japonicum [9]): 100% | Activity (Schistosoma japonicum [32]): Active | Activity (Schistosoma japonicum [33]): Active | Activity (Schistosoma japonicum [22]): Active | Activity (Schistosoma japonicum [34]): Active | Activity (Schistosoma japonicum [35]): Active | Activity (Schistosoma japonicum [36]): Active | mortality at 100 µM (Schistosoma japonicum [10]): 100% | LD50 [37]: 1400 mg/kg | Activity (Schistosoma japonicum [23]): Active | Activity (Schistosoma japonicum [11]): 26% | Activity (Schistosoma japonicum [24]): Active | Activity (Schistosoma japonicum [12]): 52% | Activity [25]: 41 U/L

CCOC(=O)/C=C1\S/C(=N\c2ccccc2)N(CCN2CCOCC2)C1=O
IC50 (Schistosoma japonicum [2]): 93.1 µM | mortality at 100 µM (Schistosoma japonicum [4]): 0% | mortality at 100 µM (Schistosoma japonicum [5]): 0% | mortality at 100 µM (Schistosoma japonicum [6]): 0% | mortality at 100 µM (Schistosoma japonicum [7]): 40% | mortality at 100 µM (Schistosoma japonicum [9]): 60% | mortality at 100 µM (Schistosoma japonicum [10]): 0%

CCOC(=O)/C=C1\S/C(=N\c2ccccc2)N(CCN2CCCC2)C1=O
IC50 (Schistosoma japonicum [2]): > 100 µM | mortality at 100 µM (Schistosoma japonicum [4]): 0% | mortality at 100 µM (Schistosoma japonicum [5]): 0% | mortality at 100 µM (Schistosoma japonicum [6]): 0% | mortality at 100 µM (Schistosoma japonicum [7]): 50% | mortality at 100 µM (Schistosoma japonicum [9]): 50% | mortality at 100 µM (Schistosoma japonicum [10]): 0%

CCOC(=O)/C=C1\S/C(=N\c2ccccc2)N(CCCN2CCOCC2)C1=O
IC50 (Schistosoma japonicum [2]): 91.3 µM | mortality at 100 µM (Schistosoma japonicum [4]): 0% | mortality at 100 µM (Schistosoma japonicum [5]): 0% | mortality at 100 µM (Schistosoma japonicum [6]): 0% | mortality at 100 µM (Schistosoma japonicum [7]): 0% | mortality at 100 µM (Schistosoma japonicum [9]): 100% | mortality at 100 µM (Schistosoma japonicum [10]): 0%

CCOC(=O)/C=C1\S/C(=N\c2ccccc2)N(CCCN2CCN(C)CC2)C1=O
IC50 (Schistosoma japonicum [2]): 75.6 µM | mortality at 100 µM (Schistosoma japonicum [4]): 0% | mortality at 100 µM (Schistosoma japonicum [5]): 0% | mortality at 100 µM (Schistosoma japonicum [6]): 0% | mortality at 100 µM (Schistosoma japonicum [7]): 100% | mortality at 100 µM (Schistosoma japonicum [9]): 100% | mortality at 100 µM (Schistosoma japonicum [10]): 10%

CCOC(=O)/C=C1\S/C(=N\c2cccc(Br)c2)N(CCCN2CCN(C)CC2)C1=O
IC50 (Schistosoma japonicum [2]): 35.1 µM | mortality at 100 µM (Schistosoma japonicum [4]): 30% | mortality at 100 µM (Schistosoma japonicum [5]): 80% | mortality at 100 µM (Schistosoma japonicum [6]): 0% | mortality at 100 µM (Schistosoma japonicum [7]): 100% | mortality at 100 µM (Schistosoma japonicum [9]): 100% | mortality at 100 µM (Schistosoma japonicum [10]): 100%

CCOC(=O)/C=C1\S/C(=N\c2ccccc2)N(CCCN(C)C)C1=O
IC50 (Schistosoma japonicum [2]): 97.7 µM | mortality at 100 µM (Schistosoma japonicum [4]): 0% | mortality at 100 µM (Schistosoma japonicum [5]): 0% | mortality at 100 µM (Schistosoma japonicum [6]): 0% | mortality at 100 µM (Schistosoma japonicum [7]): 40% | mortality at 100 µM (Schistosoma japonicum [9]): 100% | mortality at 100 µM (Schistosoma japonicum [10]): 10%

Reference: ChEMBL document CHEMBL6182876, “Design, synthesis and preliminary structure-activity relationship of 2-iminothiazolidine-4-one derivatives against Schistosoma japonicum in vitro and in vivo” (Eur J Med Chem, 2025)
